Measured values from US9833497B2, “Human originated EGF domain proteins and use of the same” (CHENGDU SOURCEBIO LIMITED-LIABILITY COMPANY, priority 2013, dated 2017).

How the values were obtained:
Format in all cases: cell-based
Citrobacter diversus = experiment: MIC against Gram-negative bacteria: Citrobacter diversus; conditions: for MIC against C. diversus: 5×10^5 CFU/mL; for MIC: C. diversus
How it was run: (§1)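 Inocula prepared by growing LB cultures at 37° C to 0.5 McFarland, centrifuging at 4000×g, and resuspending in fresh medium. Final density 5×10^5 CFU/mL per well with two-fold dilutions of purified EGF domain protein; shaking incubation at 37° C.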

E. coli DH5α = experiment: Antibacterial activity: MIC and growth curve against E. coli DH5α in 96-well plate; conditions: minimal inhibitory concentration against E. coli DH5α; 96-well plate, 5×10^5 CFU/mL, 37° C., judged after 8 h
How it was run: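 Log-phase DH5α (OD600 about 0.5, 37° C, 185 rpm in LB) was pelleted, resuspended in fresh LB and seeded at 5×10^5 CFU/mL with recombinant protein at 50, 25 and 12.5 μg/mL (two-fold series), in triplicate. Plates were shaken at 175 rpm, 37° C, and OD600 was read every 30 min. MIC was the lowest concentration with no growth.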

Proteus vulgaris = experiment: MIC against Gram-negative bacteria: Proteus vulgaris; conditions: for MIC against P. vulgaris: 5×10^5 CFU/mL; for MIC: P. vulgaris
How it was run: as §1

E. coli BL21 = experiment: MIC against Gram-negative bacteria: E. coli BL21; conditions: for MIC against E. coli BL21: 5×10^5 CFU/mL
How it was run: as §1

Aeromonas hydrophila = experiment: MIC against Gram-negative bacteria: Aeromonas hydrophila; conditions: for MIC against A. hydrophila: 5×10^5 CFU/mL; for MIC: A. hydrophila
How it was run: as §1

Serratia marcescens = experiment: MIC against Gram-negative bacteria: Serratia marcescens; conditions: for MIC against S. marcescens: 5×10^5 CFU/mL; for MIC: S. marcescens
How it was run: as §1

Proteus mirabilis = experiment: MIC against Gram-negative bacteria: Proteus mirabilis; conditions: for MIC against P. mirabilis: 5×10^5 CFU/mL; for MIC: P. mirabilis
How it was run: as §1

Enterobacter cloacae = experiment: MIC against Gram-negative bacteria: Enterobacter cloacae; conditions: for MIC against E. cloacae: 5×10^5 CFU/mL; for MIC: E. cloacae
How it was run: as §1

Klebsiella pneumonia = experiment: MIC against Gram-negative bacteria: Klebsiella pneumonia; conditions: for MIC against K. pneumonia: 5×10^5 CFU/mL; for MIC: K. pneumonia
How it was run: as §1

Pseudomonas aeruginosa = experiment: MIC against Gram-negative bacteria: Pseudomonas aeruginosa; conditions: for MIC against P. aeruginosa: 5×10^5 CFU/mL; for MIC: P. aeruginosa
How it was run: as §1

Moraxella catarrhalis = experiment: MIC against Gram-negative bacteria: Moraxella catarrhalis; conditions: for MIC against M. catarrhalis: 5×10^5 CFU/mL; for MIC: M. catarrhalis
How it was run: as §1

[1] = E. coli BL21, 10 h cultivation at 37° C.

PRT471 (VCEPGCGAHGTCHEPNKCQCQEGWHGRHCN; listed as Homo sapiens)
12.5 µg/mL: MIC against C. diversus (Citrobacter diversus; 96-well plate, 37° C., 10 h) | MIC against E. coli BL21 (E. coli BL21; 96-well plate, 37° C., 10 h) | MIC against A. hydrophila (Aeromonas hydrophila; 96-well plate, 37° C., 10 h) | MIC against S. marcescens (Serratia marcescens; 96-well plate, 37° C., 10 h) | MIC against P. mirabilis (Proteus mirabilis; 96-well plate, 37° C., 10 h) | MIC against E. cloacae (Enterobacter cloacae; 96-well plate, 37° C., 10 h) | MIC against K. pneumonia (Klebsiella pneumonia; 96-well plate, 37° C., 10 h) | MIC against P. aeruginosa (Pseudomonas aeruginosa; 96-well plate, 37° C., 10 h) | MIC against M. catarrhalis (Moraxella catarrhalis; 96-well plate, 37° C., 10 h)
25 µg/mL: MIC against P. vulgaris (Proteus vulgaris; 96-well plate, 37° C., 10 h)
100 µg/mL: MIC (E. coli DH5α)

PRT1026 (NKETCEHNHRQCSRHAFCTDYATGFCCHCQSKFYGNGKHCL; listed as Homo sapiens)
25 µg/mL: MIC (Proteus vulgaris; 10 h cultivation at 37° C.) | MIC (E. coli BL21; [1]) | MIC (Klebsiella pneumonia; 10 h cultivation at 37° C.)
12.5 µg/mL: MIC (Citrobacter diversus; 10 h cultivation at 37° C.) | MIC (E. coli DH5α) | MIC (Proteus mirabilis; 10 h cultivation at 37° C.) | MIC (Enterobacter cloacae; 10 h cultivation at 37° C.)
50 µg/mL: MIC (Aeromonas hydrophila; 10 h cultivation at 37° C.) | MIC (Serratia marcescens; 10 h cultivation at 37° C.) | MIC (Pseudomonas aeruginosa; 10 h cultivation at 37° C.) | MIC (Moraxella catarrhalis; 10 h cultivation at 37° C.)

PRT897 (DPNPCLSTPCKNAGTCHVVDRRGVADYACSCALGFSGPLCL; listed as Homo sapiens)
50 µg/mL: MIC (E. coli DH5α) | MIC (Aeromonas hydrophila; 10 h cultivation at 37° C.) | MIC (Klebsiella pneumonia; 10 h cultivation at 37° C.) | MIC (Moraxella catarrhalis; 10 h cultivation at 37° C.)
12.5 µg/mL: MIC (Citrobacter diversus; 10 h cultivation at 37° C.) | MIC (Proteus vulgaris; 10 h cultivation at 37° C.) | MIC (Enterobacter cloacae; 10 h cultivation at 37° C.) | MIC (Pseudomonas aeruginosa; 10 h cultivation at 37° C.)
25 µg/mL: MIC (E. coli BL21; [1]) | MIC (Serratia marcescens; 10 h cultivation at 37° C.) | MIC (Proteus mirabilis; 10 h cultivation at 37° C.)

PRT939 (DMNECLSEPCKNGGTCSDYVNSYTCKCQAGFDGVHCE; listed as Homo sapiens)
25 µg/mL: MIC (E. coli BL21; [1])
12.5 µg/mL: MIC (Proteus vulgaris; 10 h cultivation at 37° C.) | MIC (Aeromonas hydrophila; 10 h cultivation at 37° C.) | MIC (Klebsiella pneumonia; 10 h cultivation at 37° C.) | MIC (Pseudomonas aeruginosa; 10 h cultivation at 37° C.) | MIC (Moraxella catarrhalis; 10 h cultivation at 37° C.)
50 µg/mL: MIC (Citrobacter diversus; 10 h cultivation at 37° C.) | MIC (E. coli DH5α) | MIC (Serratia marcescens; 10 h cultivation at 37° C.) | MIC (Proteus mirabilis; 10 h cultivation at 37° C.) | MIC (Enterobacter cloacae; 10 h cultivation at 37° C.)

PRT1302 (QTSPCDQYECQNGAQCIVVQQEPTCRCPPGFAGPRCE; listed as Homo sapiens)
50 µg/mL: MIC against C. diversus (Citrobacter diversus; Citrobacter diversus, 96-well plate, 37° C., 10 h) | MIC against P. vulgaris (Proteus vulgaris; Proteus vulgaris, 96-well plate, 37° C., 10 h) | MIC against E. coli BL21 (E. coli BL21; E. coli BL21, 96-well plate, 37° C., 10 h) | MIC against K. pneumonia (Klebsiella pneumonia; Klebsiella pneumonia, 96-well plate, 37° C., 10 h)
12.5 µg/mL: MIC (E. coli DH5α) | MIC against A. hydrophila (Aeromonas hydrophila; Aeromonas hydrophila, 96-well plate, 37° C., 10 h) | MIC against P. aeruginosa (Pseudomonas aeruginosa; Pseudomonas aeruginosa, 96-well plate, 37° C., 10 h) | MIC against M. catarrhalis (Moraxella catarrhalis; Moraxella catarrhalis, 96-well plate, 37° C., 10 h)
25 µg/mL: MIC against S. marcescens (Serratia marcescens; Serratia marcescens, 96-well plate, 37° C., 10 h) | MIC against P. mirabilis (Proteus mirabilis; Proteus mirabilis, 96-well plate, 37° C., 10 h) | MIC against E. cloacae (Enterobacter cloacae; Enterobacter cloacae, 96-well plate, 37° C., 10 h)

PRT1371 (GTRACPGDCRGRGRCVDGRCVCNPGFTGEDC; listed as Homo sapiens)
100 µg/mL: MIC against C. diversus (Citrobacter diversus; Citrobacter diversus, 10 h cultivation at 37° C.)
12.5 µg/mL: MIC against P. vulgaris (Proteus vulgaris; Proteus vulgaris, 10 h cultivation at 37° C.) | MIC against E. coli BL21 (E. coli BL21; [1]) | MIC against A. hydrophila (Aeromonas hydrophila; Aeromonas hydrophila, 10 h cultivation at 37° C.) | MIC against S. marcescens (Serratia marcescens; Serratia marcescens, 10 h cultivation at 37° C.) | MIC against P. mirabilis (Proteus mirabilis; Proteus mirabilis, 10 h cultivation at 37° C.) | MIC against E. cloacae (Enterobacter cloacae; Enterobacter cloacae, 10 h cultivation at 37° C.) | MIC against K. pneumonia (Klebsiella pneumonia; Klebsiella pneumonia, 10 h cultivation at 37° C.) | MIC against P. aeruginosa (Pseudomonas aeruginosa; Pseudomonas aeruginosa, 10 h cultivation at 37° C.) | MIC against M. catarrhalis (Moraxella catarrhalis; Moraxella catarrhalis, 10 h cultivation at 37° C.)
50 µg/mL: MIC (E. coli DH5α)

PRT557 (CGCSPAGTLPEGCDEAGRCLCQPEFAGPHCDRCRPGYHGFPNCQA; listed as Homo sapiens)
25 µg/mL: MIC against P. vulgaris (Proteus vulgaris; 96-well plate, 37° C., 10 h) | MIC against E. coli BL21 (E. coli BL21; 96-well plate, 37° C., 10 h) | MIC against A. hydrophila (Aeromonas hydrophila; 96-well plate, 37° C., 10 h) | MIC against K. pneumonia (Klebsiella pneumonia; 96-well plate, 37° C., 10 h) | MIC against M. catarrhalis (Moraxella catarrhalis; 96-well plate, 37° C., 10 h)
12.5 µg/mL: MIC against C. diversus (Citrobacter diversus; 96-well plate, 37° C., 10 h) | MIC (E. coli DH5α) | MIC against S. marcescens (Serratia marcescens; 96-well plate, 37° C., 10 h) | MIC against P. mirabilis (Proteus mirabilis; 96-well plate, 37° C., 10 h) | MIC against E. cloacae (Enterobacter cloacae; 96-well plate, 37° C., 10 h) | MIC against P. aeruginosa (Pseudomonas aeruginosa; 96-well plate, 37° C., 10 h)
